Test results from patent US8389011B2, “Pharmaceutical compositions of cholesteryl ester transfer protein inhibitors” (Bend Research, Inc., priority 2000, dated 2013).

Assay: In vitro dissolution test, microcentrifuge method, in model fasted duodenal solution (MFDS)
Assay type: physicochemical
Details: summary Table 48
Description: The compositions comprising the CETP inhibitor and concentration-enhancing polymer provide enhanced concentration of the dissolved CETP inhibitor in in vitro dissolution tests. It has been determined that enhanced drug concentration in in vitro dissolution tests in Model Fasted Duodenal (MFD) solution or Phosphate Buffered Saline (PBS) is a good indicator of in vivo performance and bioavailability. An appropriate PBS solution is an aqueous solution comprising 20 mM sodium phosphate (Na2HPO4), 47 mM potassium phosphate (KH2PO4), 87 mM NaCl, and 0.2 mM KCl, adjusted to pH 6.5 with NaOH. An appropriate MFD solution is the same PBS solution wherein additionally is present 7.3 mM sodium taurocholic acid and 1.4 mM of 1-palmitoyl-2-oleyl-sn-glycero-3-phosphocholine. In particular, a composition of the present invention can be dissolution-tested by adding it to MFD or PBS solution and agitating to promote dissolution.
A typical in vitro test to evaluate enhanced drug concentration in aqueous solution can be conducted by (1) adding with agitation a sufficient quantity of control composition, typically the CETP inhibitor alone, to the in vitro test medium, typically MFD or PBS solution, to achieve equilibrium concentration of the CETP inhibitor; (2) adding with agitation a sufficient quantity of test composition (e.g., the CETP inhibitor and polymer) in an equivalent test medium, such that if all the CETP inhibitor dissolved, the theoretical concentration of CETP inhibitor would exceed the equilibrium concentration of the CETP inhibitor by a factor of at least 10, and preferably a factor of at least 100; and (3) comparing the measured MDC and/or aqueous concentration versus time AUC of the test composition in the test medium with the equilibrium concentration, and/or the aqueous concentration versus time AUC of the control composition. In conducting such a dissolution test, the amount of test composition or control composition used is an amount such that if all of the CETP inhibitor dissolved the CETP inhibitor concentration would be at least 10-fold and preferably at least 100-fold that of the equilibrium concentration. Indeed, for some extremely insoluble CETP inhibitors, in order to identify the MDC achieved it may be necessary to use an amount of test composition such that if all of the CETP inhibitor dissolved, the CETP inhibitor concentration would be 10,000-fold or even more, that of the equilibrium concentration of the CETP inhibitor.
The concentration of dissolved CETP inhibitor is typically measured as a function of time by sampling the test medium and plotting CETP inhibitor concentration in the test medium vs. time so that the MDC can be ascertained. The MDC is taken to be the maximum value of dissolved CETP inhibitor measured over the duration of the test.
To avoid large CETP inhibitor particulates which would give an erroneous determination, the test solution is either filtered or centrifuged. “Dissolved CETP inhibitor” is typically taken as that material that either passes a 0.45 μm syringe filter or, alternatively, the material that remains in the supernatant following centrifugation. Filtration can be conducted using a 13 mm, 0.45 μm polyvinylidine difluoride syringe filter sold by Scientific Resources under the trademark TITAN®. Centrifugation is typically carried out in a polypropylene microcentrifuge tube by centrifuging at 13,000 G for 60 seconds. Other similar filtration or centrifugation methods can be employed and useful results obtained. For example, using other types of microfilters may yield values somewhat higher or lower (±10-40%) than that obtained with the filter specified above but will still allow identification of preferred dispersions. […]

AUC90 (AUC through 90 min): <88 min-μg/ml | Cmax, 90 (maximum Drug 2 concentration through 90 min): <1000 ng/mL
Compound: CCOC(=O)N1c2ccc(C(F)(F)F)cc2[C@@H](N(Cc2cc(C(F)(F)F)cc(C(F)(F)F)c2)C(=O)OC)C[C@H]1CC [Control 2, [2R,4S]4-[(3,5-bis-trifluoromethyl-benzyl)-methoxycarbonyl-amino]-2-ethyl-6-trifluoromethyl-3,4-dihydro-2H-quinoline-1-carboxylic acid ethyl ester]
